Converted amounts (≈) assume the structure as drawn. Read-outs that look alike come from different tables or passages of the source.
Tests used:
Candida albicans = assay: In vitro activity (MIC99) against Candida albicans; type: cell-based
Description: The antifungal activity of compounds 5, 9, and 11-22 against Candida albicans was analyzed by the measure of the MIC99 concentration (see Table 1). Table 1. In Vitro Activity against Candida albicans of pyranodibenzofuran derivatives

[1] = system: Mycobacterium smegmatis mc^2155; assay: Mycobacterial growth inhibition in liquid culture (MIC99); type: cell-based; details: Mycolicibacterium smegmatis, MC2155|MC^2155, 48 h; mc2155; two-day's growth at 37°C; 99% decrease vs DMSO control; read-out: MIC99 on M. smegmatis
[2] = system: Mycobacterium tuberculosis H37Rv; assay: Mycobacterial growth inhibition in liquid culture, CFU plating (MIC99); type: cell-based; details: Mycobacterium tuberculosis, H37RV; for MIC99: 504 h
M. tuberculosis H37Ra = assay: Growth inhibition in liquid culture, CFU plating (MIC99); type: cell-based; details: Mycobacterium tuberculosis
M. bovis BCG (Pasteur) = assay: microbe, parasite or virus in culture; type: cell-based; details: Mycobacterium tuberculosis variant bovis BCG
M. microti (MYC-942272) = assay: Growth inhibition in liquid culture, CFU plating (MIC99); type: cell-based
[3] = system: murine bone marrow macrophages infected by M. tuberculosis H37Rv; assay: Antibacterial activity on infected bone marrow macrophages (CFU count of lysates); type: cell-based
[4] = system: Mycobacterium tuberculosis H37Rv; design: species or system C57BL/6 and BalbC mice; details: mouse, in vivo
Pneumococcus pneumoniae = assay: Growth inhibition in liquid medium, CFU plating (MIC99); type: cell-based; details: Gram-positive
Corynebacterium jeikeium = assay: as above; type: cell-based; details: Actinomycetes
Description: (§1) To further assess its specificity, effect of compounds 9 and 16 was also assessed in vitro growth in liquid medium on a whole range of bacteria (Corynebacterium jeikeium, Escherichia coli, Enterococcus faecalis, Klebsiella oxytoca, Nocardia asteroides, Staphylococcus aureus, Pseudomonas aeruginosa and Streptomyces). Compounds were solubilized in dimethylsulfoxide (DMSO) and 100 µl of the appropriate dilution were added to a 5 ml culture with predetermined bacterium inoculum. Quantification of the bacteria was carried out by plating on appropriate agar serial 5-fold dilutions in medium, and colony forming units (CFUs) were ascertained after 24 to 48 hours according to the strains. Table 5. Antibacterial activity of compounds 9 and 16 on other bacteria

Enterococcus faecalis = assay: as above; type: cell-based; details: Gram-positive
Description: as §1

Escherichia coli = assay: as above; type: cell-based; details: Gram-negative
Description: as §1

Klebsiella oxytoca = assay: as above; type: cell-based; details: Gram-negative
Description: as §1

Nocardia asteroides = assay: as above; type: cell-based; details: Actinomycetes
Description: as §1

Pseudomonas aeruginosa = assay: as above; type: cell-based; details: Gram-negative
Description: as §1

Staphylococcus aureus = assay: as above; type: cell-based; details: Gram-positive
Description: as §1

Streptomyces Subspec = assay: as above; type: cell-based; details: Actinomycetes
Description: as §1

L1210 cells = assay: Cytotoxicity, MTA (Microculture Tetrazolium Assay) test; type: cell-based; details: Mus musculus, cytotoxicity on L1210 cells, read-out: IC50
Description: The cytotoxicity of compounds 5, 9, and 10-21 was determined in L1210 cells using the MTA (Microculture Tetrazolium Assay) test.

Macrophages = assay: Cytotoxicity, MTT test; type: cell-based; details: cytotoxicity on macrophages
Description: (§2) The cytotoxicity of compounds 9 and 16 was further assessed in various mammalian cell lines using the MTT test. RAW and A549 cell lines were maintained in RPMI 1640 medium without L-GLU supplemented with 10% Fetal calf serum (FCS), penicillin-streptomycin solution 1 % at 37 °C in air with 5 % CO2. VERO cell lines were maintained in D-MEM medium without L-GLU supplemented with 10% Fetal calf Serum (FCS), penicillin-streptomycin solution 1 % at 37 °C in air with 5 % CO2. Proliferating cells were seeded for 96-well microtitration plates at a density of 5. 10^5 cells/mL which were further incubated for 24 h at 37°C under 5 % CO2 in air before each assay. Various concentrations of solutions of 9 and 16 (10 µl/well) in 1.25 % dimethylsulfoxide (DMSO)) were added and then incubated for 24 hours under the above conditions. At the end of incubation, 20 µl of dimethylthiazolyl diphenyl tetrazolium bromide solution (MTT) (7.5 mg/ml) was then added into each well and further incubated for 4 h at 37°C to allow the formation of formazan. The crystals of formazan were then dissolved with 100 µl of an acidic solution (Sodium dodecyl sulfate (SDS) 10 %, HCl 10 mM). The optical density of each well was measured at 595 nm using a Multiwell plate reader. The values given are the average means of six replicates. The 50 % inhibition concentration was determined by curve fitting.

VERO cells = assay: Cytotoxicity, MTT test; type: cell-based; details: for IC50: cytotoxicity on VERO cells, MTT, 24 hours
Description: as §2

With CC1(C)C=Cc2c(ccc3oc4ccccc4c23)O1 [Compound 9, 3,3-dimethyl-3H-benzofuro[3,2-f][1]benzopyran] the MIC99 (Candida albicans; Candida albicans, > 99 % inhibition of growth, read-out: MIC99 C. albicans) was greater than 600 µg/mL, the MIC99 (Candida albicans; Fungus, Candida albicans (table of other bacteria), read-out: MIC99) was greater than 600 µg/mL and the MIC99 [1] was 5 µg/mL (≈ 20 µM). For the same compound, the MIC99 ([2]; H37Rv, three weeks growth in 7H9, CFU on 7H11, NI = no inhibition at 1 mg/mL, read-out: MIC99 on M. tuberculosis) was 5 µg/mL (≈ 20 µM), the MIC99 ([2]; M. tuberculosis H37Rv, three week growth in 7H9/OADC) was less than 5 µg/mL and the MIC ([2]; summary statement, read-out: MIC measured on M. tuberculosis) was less than 6.25 µg/mL. The MIC99 (M. tuberculosis H37Ra) was 10 µg/mL (≈ 40 µM), the MIC99 (M. bovis BCG (Pasteur)) was 10 µg/mL (≈ 40 µM) and the MIC99 (M. microti (MYC-942272)) was 1 µg/mL (≈ 4 µM). The CFU ([3]; 5 µg/mL, 24 hours treatment, untreated control 4000 ± 1414) was 3000 ± 816, the CFU ([3]; 5 µg/mL, 48 hours treatment, untreated control 17500 ± 12583) was 2875 ± 250 and the “reduction of bacterial load” value ([3]; 10µg/mL at 24 hours) was 60%. The CFU ([3]; 10 µg/mL, 24 hours treatment, untreated control 4000 ± 1414) was 1500 ± 577, the CFU ([3]; 10 µg/mL, 48 hours treatment, untreated control 17500 ± 12583) was 10000 ± 7360 and the CFU ([3]; 50 µg/mL, 24 hours treatment, untreated control 4000 ± 1414) was 1750 ± 1500. The CFU ([3]; 50 µg/mL, 48 hours treatment, untreated control 17500 ± 12583) was 3800 ± 497, the “bacteria detected at 30 days post infection (bacterial load, CFU)” value [4] was “no bacteria was detected in 2 out of 3 mice” and the MIC99 (Pneumococcus pneumoniae) was greater than 500 µg/mL. The MIC99 (Corynebacterium jeikeium) was greater than 150 µg/mL, the MIC99 (Enterococcus faecalis) was greater than 500 µg/mL and the MIC99 (Escherichia coli) was greater than 600 µg/mL. It also gave an MIC99 (Klebsiella oxytoca) greater than 600 µg/mL, an MIC99 (Nocardia asteroides) of 12.8 µg/mL (≈ 51.1 µM) and an MIC99 (Pseudomonas aeruginosa) greater than 500 µg/mL. The MIC99 (Staphylococcus aureus) was greater than 100 µg/mL, the MIC99 (Streptomyces Subspec) was greater than 500 µg/mL and the IC50 (L1210 cells) was greater than 14 µg/mL. The IC50 (Macrophages; Macrophage, 24 h, read-out: IC50) was greater than 50 µg/mL, the IC50 (Macrophages; 24 hours) was 80 µg/mL (≈ 320 µM) and the IC50 (VERO cells; Chlorocebus sabaeus, Vero, 24 h, read-out: IC50) was greater than 50 µg/mL. For the same compound, the IC50 (VERO cells) was 80 µg/mL (≈ 320 µM) and the “Selectivity Index” value (VERO cells; summary statement, cell type not specified) was “above 10”.

From patent EP1770089A1, “Pyranodibenzofuran derivatives with antifungal and antibacterial activity” (priority 2005, dated 2007)
